Data taken from patent publication US9399625B2, “Acridone compounds” (Oregon Health & Science University, priority 2006, dated 2016).
Entries after “also recorded” stand apart in the source; their conditions may differ. Read-outs that look alike come from different tables or passages of the source.

What was measured:
[1] = tested on: CQ-sensitive D6 strain of P. falciparum; assay: In vitro antimalarial activity, SYBR Green MSF assay, D6; assay type: cell-based; conditions: Plasmodium falciparum, D6
Excerpt: (§1) This example describes the screening of disclosed antimalarial acridones against the CQ-sensitive D6 strain and the MDR Dd2 strain of P. falciparum for in vitro antimalarial activity.

[2] = tested on: MDR Dd2 strain of P. falciparum; assay: In vitro antimalarial activity, SYBR Green MSF assay, Dd2; assay type: cell-based; conditions: Plasmodium falciparum, DD2
Excerpt: as §1
As shown in Table 3 and Table 4, selected soluble acridone derivatives were screened for antimalarial activity against the CQ-sensitive D6 and the MDR Dd2 strains of P. falciparum.

[3] = Heme-binding affinity (spectrophotometric titration); conditions: Table 4
Excerpt: With continued reference to FIG. 1, panel B illustrates the spectrophotometric titration curve of the heme:3,6-bis-ε-(N,N-diethylamino)-amyloxy xanthone (C5) complex. The apparent binding constant was derived from the best fit (solid line) of a 1:1 (heme dimer:C5) association model. […] Panels A and B show the fluorescence localization of C5 and LysoTracker Red, respectively.

MDR P. falciparum Dd2 = assay: Fixed-ratio combination (isobologram) with quinoline antimalarials, Dd2; assay type: cell-based
Method: (§2) In one embodiment, synergism is assessed herein using fixed-ratio combinations that provide information over a wide range of drug concentrations. […] If these stock solutions were termed Drug A and Drug B, then six final stock solutions were prepared from this initial stock: Drug A alone, Drug B alone, and volume:volume mixtures of Drug A and B in the following ratios: 4:1, 3:2, 2:3, and 1:4. Two-fold dilutions of each of the six final stock solutions were done robotically across a 96-well plate in quadruplicate. Subsequent steps were typical of standard drug-susceptibility methods. […] The data pointed from all six curves were then analyzed using Calcusyn software (commercially available from BioSoft, Cambridge, UK) for determination of synergy. Output from this analysis included FIC values used to plot isobolograms as well as a rigorously determined synergy index, termed the combination index (CI) (Calcusyn). FIC50 isobolograms, CI's and tabulation of IC90 component drug concentrations were reported.
The combinations of the acridones T3.5 and T2 with quinine were assessed for synergism.
FIG. 6 is an isobologram charting the efficacy of quinine in combination with T3.5 in vitro against CQ-sensitive (D6) and MDR (Dd2) P. falciparum.

[4] = tested on: CQ-sensitive P. falciparum D6; assay: Fixed-ratio combination (isobologram) with quinine, D6; assay type: cell-based; conditions: isobolar analysis
Method: as §2, with “concentrations. In this method, the two drugs are mixed in an appropriate ratio, serial dilutions of the combined solution are used for testing, and results compared to each drug alone. Specifically, to determine synergy, the acridone is tested in combination with a second drug using a modification of the fixed-ratio method described by Fivelman et al. (See, Fivelman et al., Antimicrob. Agents Chemother. 48, 4097-4102 (2004) and Winter et al., Antimicrob. Agents Chemother. 41, 1449-1454 (1997), both references incorporated herein, in their entirety, by reference).” for “concentrations.”, “quadruplicate.” for “quadruplicate. Subsequent steps were typical of standard drug-susceptibility methods.”, “FIC50 isobolograms, CI's and tabulation of IC90 component drug concentrations were reported.” left out

[5] = biological target: T1, recombinant human dopamine transporter (hDAT) (Homo sapiens, UniProt Q01959); assay: [125I]RTI-55 binding, HEK-hDAT
T1 construct: expressed in transfected cells
T1 sequence (Q01959 whole entry): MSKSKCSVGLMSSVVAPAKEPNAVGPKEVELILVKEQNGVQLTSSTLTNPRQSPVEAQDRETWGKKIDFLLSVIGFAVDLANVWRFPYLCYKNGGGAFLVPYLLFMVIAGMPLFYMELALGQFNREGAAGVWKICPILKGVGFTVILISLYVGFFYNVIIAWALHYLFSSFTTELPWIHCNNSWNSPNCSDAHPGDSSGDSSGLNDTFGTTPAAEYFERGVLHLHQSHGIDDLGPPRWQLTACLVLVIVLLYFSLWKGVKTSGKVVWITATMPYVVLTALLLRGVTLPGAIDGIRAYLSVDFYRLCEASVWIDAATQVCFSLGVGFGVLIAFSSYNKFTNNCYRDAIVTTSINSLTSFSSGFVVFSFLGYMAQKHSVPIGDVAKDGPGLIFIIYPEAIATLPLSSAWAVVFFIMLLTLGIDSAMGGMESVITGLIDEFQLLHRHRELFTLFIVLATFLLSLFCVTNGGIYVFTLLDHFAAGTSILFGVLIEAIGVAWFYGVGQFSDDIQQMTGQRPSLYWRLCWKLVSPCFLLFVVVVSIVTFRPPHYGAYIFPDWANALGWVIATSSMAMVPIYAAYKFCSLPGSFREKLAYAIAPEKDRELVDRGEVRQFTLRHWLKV

[6] = biological target: T2, recombinant human serotonin transporter (hSERT) (Homo sapiens, UniProt P31645); assay: [125I]RTI-55 binding, HEK-hSERT
T2 construct: expressed in transfected cells
T2 sequence (P31645 whole entry): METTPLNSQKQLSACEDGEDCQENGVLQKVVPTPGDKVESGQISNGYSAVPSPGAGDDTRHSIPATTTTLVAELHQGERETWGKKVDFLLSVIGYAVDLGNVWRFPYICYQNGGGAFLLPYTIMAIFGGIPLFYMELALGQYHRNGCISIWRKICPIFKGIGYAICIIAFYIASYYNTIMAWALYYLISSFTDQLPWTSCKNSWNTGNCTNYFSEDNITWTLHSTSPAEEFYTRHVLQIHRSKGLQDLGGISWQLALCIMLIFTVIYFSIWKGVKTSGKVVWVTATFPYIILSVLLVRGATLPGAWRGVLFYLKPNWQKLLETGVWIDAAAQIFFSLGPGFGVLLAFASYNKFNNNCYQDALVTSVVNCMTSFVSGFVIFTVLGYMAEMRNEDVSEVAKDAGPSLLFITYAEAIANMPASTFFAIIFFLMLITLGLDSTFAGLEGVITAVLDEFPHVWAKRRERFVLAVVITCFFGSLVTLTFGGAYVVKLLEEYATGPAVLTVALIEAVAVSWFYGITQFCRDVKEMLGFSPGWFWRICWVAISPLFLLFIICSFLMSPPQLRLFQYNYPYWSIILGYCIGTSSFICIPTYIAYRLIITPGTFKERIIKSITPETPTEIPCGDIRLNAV

[7] = biological target: T3, recombinant human norepinephrine transporter (hNET) (Homo sapiens, UniProt P23975); assay: [125I]RTI-55 binding, HEK-hNET
T3 construct: expressed in transfected cells
T3 sequence (P23975 whole entry): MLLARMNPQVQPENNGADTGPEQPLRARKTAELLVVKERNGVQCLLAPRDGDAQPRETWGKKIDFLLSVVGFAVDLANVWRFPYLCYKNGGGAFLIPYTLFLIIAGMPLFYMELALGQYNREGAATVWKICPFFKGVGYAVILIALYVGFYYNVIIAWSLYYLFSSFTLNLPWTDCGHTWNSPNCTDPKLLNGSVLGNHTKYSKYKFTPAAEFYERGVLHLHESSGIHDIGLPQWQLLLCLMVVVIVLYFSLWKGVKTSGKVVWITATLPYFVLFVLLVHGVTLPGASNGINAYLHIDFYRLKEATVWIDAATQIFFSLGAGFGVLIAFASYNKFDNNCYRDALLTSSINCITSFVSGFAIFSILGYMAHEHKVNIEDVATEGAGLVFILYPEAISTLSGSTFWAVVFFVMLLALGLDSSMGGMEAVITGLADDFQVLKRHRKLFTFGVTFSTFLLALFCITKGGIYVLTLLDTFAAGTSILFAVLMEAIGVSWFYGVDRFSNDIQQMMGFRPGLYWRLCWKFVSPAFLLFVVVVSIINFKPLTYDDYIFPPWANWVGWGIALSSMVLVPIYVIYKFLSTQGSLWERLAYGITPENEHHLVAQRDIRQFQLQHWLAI

[8] = tested on: QN-sensitive P. yoelii (K); assay: In vivo synergism T3.5 and quinine, 6-day Thompson test in mice; conditions: alone or fixed-ratio combination (dose of each)
Method: In vivo synergism was assessed using the 6-day Thompson test in mice infected with QN-sensitive P. yoelii (K), comparing the efficacy of T3.5 alone, QN alone and T3.5:QN combinations (Table 7). Dosages were established using a rigorous fixed-ratio combination dosing protocol and results were assessed using Calcusyn software to determine synergy. As in the case of the in vitro combination, there was evident in vivo synergism.

P. falciparum Dd2 MDR = assay: Morphology of synchronized Dd2 parasitized red cells; assay type: cell-based; conditions: 300 nM; 36 hours of incubation; vs controls
Method: (§3) P. falciparum Dd2 MDR parasited red cells were synchronized to the ring stage by sorbitol lysis and incubated the cells in the presence or absence of 300 nM T3.5. […] P. yoelii infected mice treated with T3.5 harbor PRBCs that lack hemozoin. Taken together these observations are consistent with the notion that T3.5 blocks hemozoin formation in infected cells.

P. yoelii = assay: Hemozoin in PRBCs of treated infected mice; assay type: in vivo
Method: as §3

[9] = tested on: murine splenic lymphocytes (MSLCs); assay: Cytotoxicity by Alamar Blue assay; conditions: for IC50: cytotoxicity
P. yoelii (K) = assay: Curative efficacy vs patent infection, three once-daily doses (adapted 6-day Thompson test); conditions: ig, three once-daily doses

IC50 ([1]; Table 2, average of 4 independent experiments, read-out: IC50, D6): 50 nM
IC50 ([1]; Table 4, read-out: IC50 P. falciparum D6): 44 nM
IC50 ([2]; Table 2, average of 4 independent experiments, read-out: IC50, Dd2): 58 nM
IC50 ([2]; Table 4, read-out: IC50 P. falciparum Dd2): 77 nM
Heme-binding Ka [3]: 7.1 10^4 M^−1
Ki [5]: > 10000 nM
Ki [6]: 2290 nM
Ki [7]: > 10000 nM
SMILES: CCN(CC)CCOc1ccc2c(=O)c3ccc(Cl)cc3n(CCN(CC)CC)c2c1 [T3.5, 3-(2-diethylaminoethoxy)-6-chloro-10-(2-diethylaminoethyl)-9-acridone]
interaction with CQ (MDR P. falciparum Dd2; isobolar analysis): synergistic
interaction with amodiaquine (MDR P. falciparum Dd2; isobolar analysis): synergistic
interaction with mefloquine (MDR P. falciparum Dd2; isobolar analysis): not
interaction with quinine (MDR P. falciparum Dd2; isobolar analysis): synergism; also recorded: synergistic
T3.5 concentration giving 90% growth inhibition in combination (MDR P. falciparum Dd2; with 7-70 nM quinine): 20 to 200 nM
interaction with quinine [4]: synergism
ED50 dose [8]: 56 mg/kg/day
ED75 dose [8]: 70 mg/kg/day
ED90 dose [8]: 88 mg/kg/day
visible hemozoin (P. falciparum Dd2 MDR): markedly diminished
hemozoin in PRBCs (P. yoelii): lack hemozoin
cytotoxicity at the highest tested concentration ([9]; 25 μM): no evidence of cytotoxicity
IVTI ([9]; ratio of cytotoxicity IC50 (vs. MSLCs) to antimalarial IC50 against D6): >500
IC50 ([9]; read-out: IC50, MSLCs, Table 2): > 25000 nM
IC50 ([9]; read-out: IC50 MSLCs, Table 4): > 25000 nM
ED50 and ED90, gavage (ig) dosing, in words (P. yoelii (K)): comparable
